Key:
[1] = Safety assessment in the clinical study (adverse events, local irritation); format: in vivo; details: 180 mg Tobramycin per ml, healthy subjects
Experimental: According to one aspect of the present disclosure, a pharmaceutical solution comprising 180 mg Tobramycin per ml water is used. This corresponds to approximately 3 fold the concentration of the solution in the marketed product (TOBI®). Tobramycin at 60 mg/mL is known to be well tolerated in healthy volunteers even at higher total dose levels; however it is considered that this increase in concentration potentially increases the risk of local irritation, but is not considered to be the primary driver for systemic exposure or systemic side effects in this study since the total dose level is lower.
Safety was assessed as well by reviewing adverse events data and vital signs data including pulse oximetry and spirometry data.

[2] = Gamma scintigraphy lung deposition, two way crossover study; details: standard treatment, 300 mg using 5 mL in a Pari nebulizer

dose reaching the lungs [2]: approx. 10%
Compound: NCC1OC(OC2C(N)CC(N)C(OC3OC(CO)C(O)C(N)C3O)C2O)C(N)CC1O [Tobramycin, (2S,3R,4S,5S,6R)-4-amino-2-{[(1S,2S,3R,4S,6R)-4,6-diamino-3-{[2R,3R,5S,6R)-3-amino-6-(aminomethyl)-5-hydroxyoxan-2-yl]oxy}-2-(hydroxymethylcyclohexyl]oxy)-6-(hydroxymethyl)oxane-3,5-diol]
local irritation [1]: only a few incidents of local irritation
